Patent US20210024756A1, “STABILIZED COPPER GLASS” (CORNING INCORPORATED, priority 2018, published 2021)

Test system: E. coli
Experiment: Minimum Inhibition Concentration, bacterial recovery grading
Assay type: cell-based
Design: key: −: No bacterial recovery.; +: Trace of contamination (<10colonies).; ++: Light contamination (>100 colonies).; +++: Heavy contamination (continuous smear of growth)
Settings: E. coli OD 0.441, 2.68 × 10^8 cell/mL

thiourea [Thiourea Ctrl] was tested, and the “Bacterial growth (Minimum Inhibition Concentration)” value (0.0001 ppm (mg/L)) was “+++”, the “Bacterial growth (Minimum Inhibition Concentration)” value (0.001 ppm (mg/L)) was “+++” and the “Bacterial growth (Minimum Inhibition Concentration)” value (0.01 ppm (mg/L)) was “+++”. For the same substance, the “Bacterial growth (Minimum Inhibition Concentration)” value (0.1 ppm (mg/L)) was “+++”, the “Bacterial growth (Minimum Inhibition Concentration)” value (1 ppm (mg/L)) was “+++” and the “Bacterial growth (Minimum Inhibition Concentration)” value (10 ppm (mg/L)) was “+++”. For the same substance, the “Bacterial growth (Minimum Inhibition Concentration)” value (100 ppm (mg/L)) was “+++”, the “Bacterial growth (Minimum Inhibition Concentration)” value (1000 ppm (mg/L)) was “+++” and the “Bacterial growth (Minimum Inhibition Concentration)” value (10000 ppm (mg/L)) was “+++”. For the same substance, the “Bacterial growth (Minimum Inhibition Concentration)” value (100000 ppm (mg/L)) was “+++” and the “Bacterial growth (Minimum Inhibition Concentration)” value (1000000 ppm (mg/L)) was “−”.
